Source: patent US20150072968A1, “Treating Infections with Ceftolozane/Tazobactam in Subjects Having Impaired Renal Function” (Calixa Therapeutics, Inc., priority 2013, published 2015)

How the values were obtained:
P. aeruginosa = assay: Baseline susceptibility testing of cUTI isolates, CLSI broth microdilution; type: cell-based, Pseudomonas aeruginosa; conditions: comparators
Method: (§1) 764 isolates of Gram-negative aerobic organisms were isolated from 800 patients in the microbiological modified intent-to-treat population (enrolled in 20 countries in Eastern Europe, North America, South America and 5 countries outside of these regions). Susceptibility (S) testing was performed with ceftolozane/tazobactam at a fixed 4 μg/mL of tazobactam and 10 antibiotic comparators using CLSI broth microdilution methods. ESBL enzymes were identified by PCR.

[1] = tested on: Klebsiella pneumoniae (KPN); assay: as above; type: cell-based
Method: as §1

[2] = tested on: complicated urinary tract infections (including pyelonephritis); assay: Phase 3 study of complicated urinary tract infections, composite microbiological and clinical cure at TOC visit; type: in vivo, human; conditions: for Composite Cure Rate at TOC: levofloxacin-resistant population
From the text: (§2) The primary efficacy endpoint was the composite microbiological and clinical cure response at the test-of-cure (TOC) visit in the microbiologically modified intent-to-treat (mMITT) population, which included all patients who received study medication and had at least 1 baseline uropathogen. The key secondary efficacy endpoint was the composite microbiological and clinical cure response at the TOC visit in the microbiologically evaluable (ME) population, which included protocol-adherent mMITT patients with a urine culture at the TOC visit.

Enterobacteriaceae = assay: Phase 3 cUTI study, per pathogen microbiological eradication; type: in vivo; conditions: levofloxacin-resistant population, ME
From the text: as §2

Escherichia coli [3] = assay: as above; type: in vivo; conditions: levofloxacin-resistant population, ME
From the text: as §2

Klebsiella pneumoniae [4] = assay: as above; type: in vivo; conditions: levofloxacin-resistant population, ME
From the text: as §2

Pseudomonas aeruginosa [5] = assay: as above; type: in vivo; conditions: levofloxacin-resistant population, ME
From the text: as §2

[6] = human, in vivo, 7 days
gram-negative pathogens = assay: Baseline susceptibility testing of cUTI isolates, CLSI broth microdilution; type: cell-based; conditions: mMITT population; ceftolozane/tazobactam breakpoint ≦8 mg/1, levofloxacin CLSI criteria
Method: as §1

E. coli = assay: as above; type: cell-based, Escherichia coli
Method: as §1

[7] = tested on: complicated intra-abdominal infections; assay: Phase 3 study of complicated intra-abdominal infections, clinical response at TOC visit; type: in vivo, human
Method: (§3) A total of 979 adults hospitalized with complicated intra-abdominal infections were randomized and received study medications in a multinational, double-blind study comparing CXA-201 (1.5 g IV every 8 hours) plus metronidazole (500 mg IV every 8 hours) to meropenem (1 g IV every 8 hours) for 4 to 14 days of therapy. Complicated intra-abdominal infections included appendicitis, cholecystitis, diverticulitis, gastric/duodenal perforation, perforation of the intestine, and other causes of intra-abdominal abscesses and peritonitis. The primary efficacy endpoint was clinical response at the test-of-cure (TOC) visit in the microbiological intent-to-treat (MITT) population, which included all patients who had at least 1 baseline intra-abdominal pathogen. The key secondary efficacy endpoint was clinical response at the TOC visit in the microbiologically evaluable (ME) population, which included all protocol-adherent MITT patients.

Aerobic Gram-negative = assay: Phase 3 cIAI study, per pathogen clinical cure; type: in vivo; conditions: ME population
Method: as §3

Aerobic Gram-positive = assay: Phase 3 cIAI study, per pathogen clinical cure; type: in vivo; conditions: ME population
Method: as §3

Anaerobic Gram-negative = assay: Phase 3 cIAI study, per pathogen clinical cure; type: in vivo; conditions: ME population
Method: as §3

Bacteroides fragilis = assay: Phase 3 cIAI study, per pathogen clinical cure; type: in vivo; conditions: ME population
Method: as §3

Bacteroides ovatus = assay: Phase 3 cIAI study, per pathogen clinical cure; type: in vivo; conditions: ME population
Method: as §3

[8] = tested on: Bacteroides thetaiotaomicron; assay: Phase 3 cIAI study, per pathogen clinical cure; type: in vivo; conditions: ME population
Method: as §3

Bacteroides vulgatus = assay: Phase 3 cIAI study, per pathogen clinical cure; type: in vivo; conditions: ME population
Method: as §3

Enterobacter cloacae = assay: Phase 3 cIAI study, per pathogen clinical cure; type: in vivo; conditions: ME population
Method: as §3

Escherichia coli [9] = assay: Phase 3 cIAI study, per pathogen clinical cure; type: in vivo; conditions: ME population
Method: as §3

Klebsiella oxytoca = assay: Phase 3 cIAI study, per pathogen clinical cure; type: in vivo; conditions: ME population
Method: as §3

Klebsiella pneumoniae [10] = assay: Phase 3 cIAI study, per pathogen clinical cure; type: in vivo; conditions: ME population
Method: as §3

Proteus mirabilis = assay: Phase 3 cIAI study, per pathogen clinical cure; type: in vivo; conditions: ME population
Method: as §3

Pseudomonas aeruginosa [11] = assay: Phase 3 cIAI study, per pathogen clinical cure; type: in vivo; conditions: ME population
Method: as §3

Streptococcus anginosus = assay: Phase 3 cIAI study, per pathogen clinical cure; type: in vivo; conditions: ME population
Method: as §3

[12] = tested on: Streptococcus constellatus; assay: Phase 3 cIAI study, per pathogen clinical cure; type: in vivo; conditions: ME population
Method: as §3

Streptococcus salivarius = assay: Phase 3 cIAI study, per pathogen clinical cure; type: in vivo; conditions: ME population
Method: as §3

[13] = Phase 1 single dose PK of 750 mg ceftolozane/tazobactam in severe renal impairment and ESRD on hemodialysis (Example 8); type: in vivo, human
Method: This was a Phase 1, multicenter, prospective, open-label study of 750 mg ceftolozane/tazobactam (as CXA-201) administered IV in male and female adult subjects with severe renal impairment (estimated CLCR<30 mL/min) and subjects with end-stage renal disease (ESRD) on hemodialysis (HD). The primary objective of the study was to determine the PK profile of ceftolozane/tazobactam in subjects with severe renal impairment and subjects with ESRD on HD and to determine the effect of HD on the clearance of ceftolozane/tazobactam.
Subjects with severe renal impairment received a single IV 1-hour infusion of 750 mg ceftolozane/tazobactam on Day 1. […] Subjects in this cohort received an IV dose of 750 mg ceftolozane/tazobactam as a 1 hour infusion immediately after their first HD session on Day 1 (postdialysis, approximately 72 hours prior to the next HD session) and a second dose of ceftolozane/tazobactam approximately 2 hours before their second HD session on Day 4 of the study. Infusion of ceftolozane/tazobactam was completed approximately 1 hour before the start of HD.
Subjects in both cohorts had urine (if not anuric) and plasma samples collected for determination of levels of ceftolozane, tazobactam and the M1 metabolite of tazobactam; subjects in the ESRD on HD cohort also had dialysate fluid samples collected for PK assessment. Plasma, urine, and dialysate levels of ceftolozane, tazobactam, and its metabolite M1 collected over a prespecified interval were determined by LC/MS/MS assay.
All subjects underwent hemodialysis for 3 to 4 hours using a high-flux membrane (either 1.4, 1.8, or 1.9 m^2) on Days 1, 4, and 6 as scheduled. Average blood flow rate was 264 to 600 mL/min and average dialysis flow rate was either 600 or 800 mL/min for all subjects with ESRD.

[14] = ESRD on HD, second IV infusion of 750 mg on Day 4 (during HD)
[15] = ESRD on HD, second infusion Day 4, start of infusion to end of dialysis
[16] = severe renal impairment, single IV 1-hour infusion of 750 mg ceftolozane/tazobactam

SMILES: C[C@@H](O)[C@H]1C(=O)N2C(C(=O)O)=C(SCCN=CN)C[C@H]12 [imipenem]
- susceptibility of isolates (P. aeruginosa): 45.0%

SMILES: CC(C)(O/N=C(\C(=O)N[C@@H]1C(=O)N2C(C(=O)[O-])=C(C[n+]3ccccc3)CS[C@H]12)c1csc(N)n1)C(=O)O [ceftazidime]
- isolates inhibited at ≦8 μg/mL [1]: 58.2%
- susceptibility of isolates (P. aeruginosa): 40.0%

SMILES: C[C@H]1COc2c(N3CCN(C)CC3)c(F)cc3c(=O)c(C(=O)O)cn1c23 [Levofloxacin]
- Composite microbiological and clinical cure rate at TOC visit ([2]; ME population): 266/353 (75.4) %
- Composite Cure Rate at TOC ([2]; ME): 43.4%
- Composite Cure Rate at TOC ([2]; mMITT): 39.3%
- Composite microbiological and clinical cure rate at TOC visit ([2]; mMITT population): 275/402 (68.4) %
- Per-pathogen Microbiological Eradication Rate at TOC (Enterobacteriaceae): 45.2%
- Per-pathogen Microbiological Eradication Rate at TOC (Escherichia coli [3]): 44.1%
- Per-pathogen Microbiological Eradication Rate at TOC (Klebsiella pneumoniae [4]): 30.0 (3/10) %
- Per-pathogen Microbiological Eradication Rate at TOC (Pseudomonas aeruginosa [5]): 37.5 (3/8) %
- adverse event gastrointestinal symptoms [6]: 11.4%
- adverse event headache [6]: 4.9%
- incidence of treatment-limiting adverse events [6]: < 2%
- patients with adverse events [6]: 34.4%
- gram-negative pathogens isolated at baseline susceptible (gram-negative pathogens): 70.7%
- MIC50 (E. coli; E. coli baseline isolates): 0.03 mg/1
- MIC90 (E. coli; E. coli baseline isolates): > 4 mg/1
- E. coli isolates susceptible (E. coli; mMITT population, regardless of ESBL phenotype): 74.1%
- susceptibility of isolates (P. aeruginosa): 35.0%

SMILES: C[C@@H](O)[C@H]1C(=O)N2C(C(=O)O)=C(S[C@@H]3CN[C@H](C(=O)N(C)C)C3)[C@H](C)[C@H]12 [Meropenem]
- Clinical cure rate at TOC visit ([7]; ME population): 304/321 (94.7) %
- Clinical cure rate at TOC visit ([7]; MITT population): 364/417 (87.3) %
- Per pathogen clinical cure rate (Aerobic Gram-negative): 273/291 (93.8) %
- Per pathogen clinical cure rate (Aerobic Gram-positive): 170/185 (91.9) %
- Per pathogen clinical cure rate (Anaerobic Gram-negative): 132/137 (96.4) %
- Per pathogen clinical cure rate (Bacteroides fragilis): 56/57 (98.2) %
- Per pathogen clinical cure rate (Bacteroides ovatus): 42/42 (100) %
- Per pathogen clinical cure rate [8]: 40/43 (93.0) %
- Per pathogen clinical cure rate (Bacteroides vulgatus): 21/22 (95.5) %
- Per pathogen clinical cure rate (Enterobacter cloacae): 22/22 (100) %
- Per pathogen clinical cure rate (Escherichia coli [9]; Escherichia coli): 216/231 (93.5) %
- Per pathogen clinical cure rate (Escherichia coli [9]; Escherichia coli (CTX-M-14/15 ESBL-producing)): 7/9 (77.8) %
- Per pathogen clinical cure rate (Escherichia coli [9]; Escherichia coli (EBSL-producing)): 18/20 (90.0) %
- Per pathogen clinical cure rate (Klebsiella oxytoca): 21/22 (95.5) %
- Per pathogen clinical cure rate (Klebsiella pneumoniae [10]; Klebsiella pneumonia): 22/25 (88.0) %
- Per pathogen clinical cure rate (Klebsiella pneumoniae [10]; Klebsiella pneumoniae (CTX-M-15 ESBL-producing)): 7/9 (77.8) %
- Per pathogen clinical cure rate (Klebsiella pneumoniae [10]; Klebsiella pneumoniae (ESBL-producing)): 3/4 (75.0) %
- Per pathogen clinical cure rate (Proteus mirabilis): 9/10 (90.0) %
- Per pathogen clinical cure rate (Pseudomonas aeruginosa [11]): 27/29 (93.1) %
- Per pathogen clinical cure rate (Streptococcus anginosus): 23/23 (100) %
- Per pathogen clinical cure rate [12]: 20/23 (87.0) %
- Per pathogen clinical cure rate (Streptococcus salivarius): 8/8 (100) %

SMILES: CO/N=C(\C(=O)N[C@@H]1C(=O)N2C(C(=O)[O-])=C(C[N+]3(C)CCCC3)CS[C@H]12)c1csc(N)n1 [cefepime]
- susceptibility of isolates (P. aeruginosa): 50.0%

SMILES: NCC[C@H](O)C(=O)N[C@@H]1C[C@H](N)[C@@H](O[C@H]2O[C@H](CN)[C@@H](O)[C@H](O)[C@H]2O)[C@H](O)[C@H]1O[C@H]1O[C@H](CO)[C@@H](O)[C@H](N)[C@H]1O [amikacin]
- susceptibility of isolates (P. aeruginosa): 55.0%

SMILES: C[C@](Cn1ccnn1)([C@@H](N)C(=O)O)S(=O)O [M1 Metabolite]
- Cmax, Mean (CV %) ([13]; ESRD on HD, Day 1 IV infusion of 750 mg (non-hemodialysis phase)): 10.0 (40) μg/mL
- AUClast, Mean (CV %) ([13]; ESRD on HD, Day 1 IV infusion of 750 mg (non-hemodialysis phase), through 48 hours): 367 (42) μg·h/mL
- Cmax, Mean (CV %) [13, 14]: 10.8 (46) μg/mL
- tmax, Median (minimum, maximum) [13, 14]: 1.5 (0.5, 24.0) h
- AUClast, Mean (CV %) ([13]; ESRD on HD, second IV infusion of 750 mg on Day 4 (during HD), through 44 hours): 176 (40) μg·h/mL
- AUClast, Mean (CV %) ([13]; ESRD on HD, second infusion Day 4, approximately 6 hours from start of infusion to end of dialysis): 23.8 (44) μg·h/mL
- Cmax, Mean (CV %) [13, 15]: 10.6 (49) μg/mL
- t1/2, Mean (CV %) [13, 15]: 1.54 (48) h
- tmax, Median (minimum, maximum) [13, 15]: 1.5 (0.5, 1.5) h
- AUC∞, Mean (CV %) [13, 16]: 60.3 (30) μg·h/mL
- t1/2, Mean (CV %) [13, 16]: 12.0 (29) h
- Cmax, Mean (CV %) ([13]; severe renal impairment, single IV 1-hour infusion of 750 mg ceftolozane/tazobactam, plasma): 2.2 (20) μg/mL
- AUClast, Mean (CV %) ([13]; severe renal impairment, single IV 1-hour infusion of 750 mg ceftolozane/tazobactam, plasma, through 48 hours): 53.7 (25) μg·h/mL
- Exposure (AUC48h) After HD (Day 1), Median (Range) ([13]; subjects with ESRD): 389 (99.8 − 538) μg·h/mL
- Exposure (AUC48h) During HD (Day 3), Median (Range) ([13]; subjects with ESRD): 182 (78 − 255) μg·h/mL
- removed by dialysis ([13]; subjects with ESRD on HD): ~51%
- AUC48h Ratio (Day 3:1), Median (Range) ([13]; subjects with ESRD, during HD vs after HD): 0.49 (0.38 − 0.78)
- Percent Removed, Median (Range) ([13]; subjects with ESRD, hemodialysis): 51 (22 − 63) Percent
